US11891628B2, “Method for biomimetic culture of urothelial cells and uses thereof” (China Medical University, priority 2018, dated 2024)

Experiments:
[1] = tested on: BBN-induced bladder tumor; assay: BBN-induced bladder tumor mouse model; type: in vivo, mice
Procedure: FIG. 9. […] Tumor-bearing mice were treated according to the experimental scheme (A). Representative photographs of the gross tumors from mice with different treatments (B). Tumor weights of the different treatment groups (C) (mean±SD, at least 9 mice from 3 independent experiments). Representative H&E stained images of tumors of different treatment groups (D). Histograms of the pathological analysis for the proportions of hyperplastic and neoplastic changes in bladder H&E stained section of mice with different treatments (E). *p<0.05; **p<0.01 by Student's t test.
For BBN-induced bladder tumor formation, a 0.05% concentration of BBN (TCI America, Portland, OR) was dissolved in drinking water, and BBN-containing water in a dark bottle was provided to 8-10 week old female C57BL/6 mice ad libitum for 10-20 weeks until hematuria score is over 2+ (Arkray Aution Sticks urine strip) as a sign of bladder tumor formation. […]
To test the anti-tumor effects of intravesical xenogeneic cell therapy in combination with chemotherapeutic agents in delaying tumor progression, BBN-induced tumor mouse model, which simulates the human bladder tumorigenesis from hyperplasia, carcinoma in situ (CIS) to invasive carcinoma was used. […] The progression of BBN-induced bladder tumors in the treatment groups and control group was assessed by macroscopic and histopathological examination from harvested bladders. […]

[2] = tested on: MBT-2-luc orthotopic graft bladder tumor; assay: Orthotopic MBT-2-luc graft bladder tumor mouse model
Procedure: The tumor bearing mice were enrolled when tumor bioluminescent signal reached 10^5 total plex and treated according to the treatment scheme (A).
Tumors from mice of different treatment groups were harvested, processed and sectioned for tumor cell Ki-67 IHC and TUNEL assay. Tumor sections were evaluated for cell proliferation 45 with Ki-67 IHC staining (A). Ki-67 positive cells on tumor sections were counted and quantified from mice of 3 independent experiments (B). Tumor sections were stained with TUNEL (FITC) and observed under a fluorescent microscope (C). DAPI was used for nuclear staining. TUNEL positive cells on tumor sections were counted and quantified from mice of 3 independent experiments (D). Values are expressed as mean±standard error of the mean (n=3). *p<0.05; **p<0.01; ***p<0.001, by Student's t test. Scale bar, 50 μm.
Tumors from mice given different treatments were analyzed by IHC for lymphocyte and NK cell infiltration. Representative images of anti-CD4 (A), CD8 (B) and NKG2D (C) IHC staining on tumor sections. Quantification of CD4+ T lymphocytes (D), CD8+T lymphocytes (E) and NKG2D+ NK cells (F) in tumors for each treatment group by counting the positive cells in four randomly selected HPFs among 3 mice in each group, and data were expressed as the means±SD. Error bars represent SD. *p<0.05; **p<0.01; ***p<0.001, by Student's t test.
Female C3H/HeJ 9-week-old mice were used to establish the intramural orthotopic model. MBT-2 murine urothelial carcinoma cells stably expressing luciferase gene (MBT-2-luc) were intramuscularly injected to mouse bladder walls and capture tumor imaged by Xenogen IVIS 200 once per week. The mice are divided control and experiment groups when tumors are reached around 1×10^5 p/s total flux in bioluminescence imaging. The tumor bearing mice were divided into 4 treatment groups: (i). Vehicle control, (ii). Xenogeneic urothelial cell: intravesical of instillation xenogeneic urothelial cells (1×10^6 cells), once a week, day 3 for 4 weeks, (iii). […] A 24-gauge catheter is introduced into the lumen of the bladder through the urethra. Xenogeneic urothelial cells, 1×10^6 in a 100 μl suspension is then injected into the bladder. To prevent voiding of the xenogeneic urothelial cells, the catheter is held in place for at least 40 minutes with the injection syringe attached. The catheter is removed before the mouse recovered from anesthesia. The responses of mice are analyzed on BLI total flux intensity changes from the baseline.

[3] = IHC on tumor sections, vs vehicle

Gemcitabine plus cisplatin [GC]
tumor weight ([1]; harvested bladders after 4 weeks treatment): significantly reduced
proportion of mice progressed to invasive carcinoma ([1]; histopathological analysis of H&E sections): significantly lower
NKG2D+ NK cell infiltration in tumors [2, 3]: not observed
tumor CD4+ T cell infiltration [2, 3]: increased
tumor CD8+ T cell infiltration [2, 3]: increased
tumor growth ([2]; bioluminescence, vs vehicle-treated groups, 4 weeks treatment): significantly decreased
